System: anti-PAH monoclonal antibody
Assay: PAH immunoassay (competitive, antibody coated tubes): cross-reactivity with the anti-PAH monoclonal antibody
Assay type: binding, Balb/c mice
Settings: for Percent Cross-Reactivity: phenanthrene 100%; for detection in the immunoassay: at 200 ppm levels
Experimental: Female Balb/c mice received a primary subcutaneous immunization with 50 ug of β-methylnaphthalene derivatized to bovine serum albumin in adjuvant (MPL+TDM Emulsion, RIBI Immunochem Research, Inc., Hamilton, Mont.). Subcutaneous secondary injections (25 ug) were given at day 21, 35, and then monthly. […] Hybridoma cultures producing monoclonal antibodies recognizing free hapten by EIA were cloned by limiting dilution.
Antibody coated tubes were prepared by passively coating polystyrene (12X75 mm, NUNC) tubes with the monoclonal F12-3C8 antibody diluted in PBS and incubating overnight. The NUNC polystyrene tubes were rinsed with hexane prior to use and were all from the same lot.
10 g of a soil sample were placed in an extraction vial containing 20 mL of methanol and 5 steel pellets (6 mm) and the vial and its contents shaken for 1 minute to disperse the soil particles and extract the PAHs. The sample was then filtered to clarify the sample extract using a glass fiber depth filter and a 0.45μ Teflon filter. 45 uL of the clarified filtrate sample was mixed with 955 μl of 10 mM PBS (pH=7.4) and the resulting mixture added to lyophilized enzyme conjugate reagent (0.3 μg) and mixed. At the same time, 2×45 uL of the phenanthrene standard are similarly treated. The sample and the two standards were then poured into three identical antibody coated tubes, respectively, and the resulting solution mixed. The resulting solution was incubated for 10 minutes at ambient temperature and then washed 4X with a wash buffer (detergent-saline solution). 250 uL of tetramethylbenzidene solution (KP Laboratories, Cat. No. 50-76-02) was added along with 250 uL of hydrogen peroxide solution (KPL, Cat. No. 50-65-02) and the resultant solution mixed. After incubating for 2.5 minutes the color development reaction was stopped with 250 uL of stop solution (1M sulfuric acid).
The optical density (OD) of the test sample was compared to the OD of the phenanthrene standard (0.65 ppm soil equivalents) which was tested simultaneously with the sample. If the sample OD is less than the standard OD, the sample contains more than 1 ppm PAH. […] Other concentration ranges can be assessed by diluting the test samples with suitable diluents, as long as they are non-reactive with the components of the assay.
In addition other potentially cross-reactive compounds were tested.

[1] = Non-EPA PAHs and other compounds

SMILES	Percent Cross-Reactivity [1]	Concentration Giving a Positive Result (ppm, soil equivalent) [1]	Percent Cross-Reactivity (Method 8310 EPA PAHs)	Concentration Giving A Positive Result (ppm, soil equivalent) (Method 8310 EPA PAHs)	detection in the immunoassay	concentration in soil at which the PAH immunoassay will provide a positive result (in soils)
Clc1cccc2ccccc12 [1-chloronaphthalene]	1.7%	59 ppm	–	–	–	–
Cc1cccc2ccccc12 [1-methylnaphthalene]	1.8%	54 ppm	–	–	–	–
Clc1cc(Cl)c(Cl)cc1Cl [2,3,5,6-Tetrachlorobenzene]	< 0.5%	> 200 ppm	–	–	–	–
Clc1cc(Cl)cc(Cl)c1 [2,4,6-Trichlorobenzene]	< 0.5%	> 200 ppm	–	–	–	–
Cc1ccc2ccccc2c1 [2-methylnaphthalene]	1.7%	58 ppm	–	–	–	–
c1cc2c3c(cccc3c1)CC2 [Acenaphthene]	–	–	12%	8.1 ppm	–	–
C1=Cc2cccc3cccc1c23 [Acenaphthylene]	–	–	13%	7.5 ppm	–	–
c1ccc2cc3ccccc3cc2c1 [Anthracene]	–	–	123%	0.81 ppm	–	–
c1ccccc1 [Benzene]	< 0.5%	> 200 ppm	–	–	not detected	–
c1ccc2cc3c(ccc4ccccc43)cc2c1 [Benzo(a)anthracene]	–	–	64%	1.6 ppm	–	–
c1ccc2c(c1)cc1ccc3cccc4ccc2c1c34 [Benzo(a)pyrene]	–	–	12%	8.3 ppm	–	≥ 8.3 ppm
c1ccc2c(c1)-c1cccc3c1c-2cc1ccccc13 [Benzo(b)fluoranthene]	–	–	22%	4.6 ppm	–	–
c1cc2ccc3ccc4ccc5cccc6c(c1)c2c3c4c56 [Benzo(ghi)perylene]	–	–	< 0.5%	> 200 ppm	–	–
c1ccc2cc3c(cc2c1)-c1cccc2cccc-3c12 [Benzo(k)fluoranthene]	–	–	11%	9.4 ppm	–	–
CCCCC(CC)COC(=O)c1ccccc1C(=O)OCC(CC)CCCC (centres unmarked) [Bis(2-ethylhexyl) phthalate]	< 0.5%	> 200 ppm	–	–	–	–
c1ccc2c(c1)ccc1c3ccccc3ccc21 [Chrysene]	–	–	84%	1.2 ppm	–	–
c1ccc2c(c1)ccc1cc3c(ccc4ccccc43)cc12 [Dibenzo(a,h)anthracene]	–	–	< 0.5%	> 200 ppm	–	–
c1ccc2c(c1)oc1ccccc12 [Dibenzofuran]	7.2%	14 ppm	–	–	–	–
c1ccc2c(c1)-c1cccc3cccc-2c13 [Fluoranthene]	–	–	73%	1.4 ppm	–	–
c1ccc2c(c1)Cc1ccccc1-2 [Fluorene]	–	–	67%	1.5 ppm	–	–
c1ccc2c(c1)-c1ccc3ccc4cccc5cc-2c1c3c45 [Indeno(1,2,3-cd)pyrene]	–	–	9.4%	11 ppm	–	–
c1ccc2ccccc2c1 [Naphthalene]	–	–	0.5%	200 ppm	–	–
Clc1cc(Cl)c(Cl)c(Cl)c1Cl [Pentachlorobenzene]	< 0.5%	> 200 ppm	–	–	–	–
Oc1c(Cl)c(Cl)c(Cl)c(Cl)c1Cl [Pentachlorophenol]	< 0.5%	> 200 ppm	–	–	–	–
c1ccc2c(c1)ccc1ccccc12 [Phenanthrene, reference compound]	–	–	100%	1.0 ppm	–	–
Oc1ccccc1 [Phenol]	< 0.5%	> 200 ppm	–	–	not detected	–
c1cc2ccc3cccc4ccc(c1)c2c34 [Pyrene]	–	–	29%	3.5 ppm	–	–
Cc1ccccc1 [Toluene]	< 0.5%	> 200 ppm	–	–	–	–

— patent US5618681A, “Polyaromatic hydrocarbon (PAH) immunoassay method, its components and a kit for use in performing the same” (priority 1995, dated 1997)
